In patent US8575178B2, “Isothiazolo-pyrimidinedione derivatives as TRPA1 modulators” (Glenmark Pharmaceuticals S.A., priority 2009, dated 2013):

Legend:
human TRPA1 = molecular target: T1, human TRPA1 (Homo sapiens, UniProt O75762); assay: 45Calcium uptake assay, inhibition of AITC induced calcium uptake in human TRPA1 expressing CHO cells; assay type: cell-based; conditions: AITC 30 μM; for inhibition at 1 µM: 1.0 μM compound, read-out: human TRPA1 Percentage inhibition at 1.0 μM; for inhibition at 10 µM: 10.0 μM compound, read-out: human TRPA1 Percentage inhibition at 10.0 μM
T1 construct: expressed in transfected cells; host or cells: CHO cells (G-418 selection)
Text: (§1) The illustrative examples of the present invention are screened for TRPA1 activity according to a modified procedure described in (a) Tóth, A. et al. Life Sciences, 2003, 73, 487-498. (b) McNamara C, R. et al, Proc. Natl. Acad. Sci. U.S.A., 2007, 104, 13525-13530. The screening of the compounds can be carried out by other methods and procedures known to persons skilled in the art.
(§2) Screening for TRPA1 Antagonist Using the ^45Calcium Uptake Assay:
(§3) The inhibition of TRPA1 receptor activation was measured as inhibition of allyl isothiocyanate (AITC) induced cellular uptake of radioactive calcium.
(§4) Test compounds were dissolved in 100% DMSO to prepare 10 mM stock and then diluted using plain medium with 0.1% BSA and 1.8 mM CaCl2 to get the desired concentration. The final concentration of DMSO in the reaction was 0.5% (v/v). Human TRPA1 expressing CHO cells were grown in F-12 DMEM medium with 10% FBS, 1% penicillin-streptomycin solution, and 400 μg/ml of G-418. Rat TRPA1 expressing CHO cells were grown in F-12 DMEM medium with 10% FBS, 1% penicillin-streptomycin solution, and 400 μg/ml of Zeocin. Cells were seeded 24 h prior to the assay in 96 well plates so as to get ˜50,000 cells per well on the day of experiment. Cells were treated with the test compounds for 10 minutes followed by the addition of AITC at a final concentration of 30 μM (for human TRPA1) and/or 10 μM (for rat TRPA1) and 5 μCi/ml ^45Ca^+2 for 3 minutes. Cells were washed and lysed using a buffer containing 1% Triton X-100, 0.1% deoxycholate and 0.1% SDS. Radioactivity in the lysate was measured in a Packard TopCount after addition of liquid scintillant. (Toth et al, Life Sciences (2003) 73, 487-498; McNamara C R et al, Proceedings of the National Academy of Sciences, (2007) 104, 13525-13530).
(§5) Concentration response curves were plotted as a % of maximal response obtained in the absence of test antagonist. IC50 values can be calculated from concentration response curve by nonlinear regression analysis using GraphPad PRISM software.

rat TRPA1 = molecular target: T2, rat TRPA1 (Rattus norvegicus, UniProt Q6RI86); assay: 45Calcium uptake assay, inhibition of AITC induced calcium uptake in rat TRPA1 expressing CHO cells; assay type: cell-based; conditions: AITC 10 μM; for inhibition at 1 µM: 1.0 μM compound, read-out: rat TRPA1 Percentage inhibition at 1.0 μM; for inhibition at 10 µM: 10.0 μM compound, read-out: rat TRPA1 Percentage inhibition at 10.0 μM
T2 construct: expressed in transfected cells; host or cells: CHO cells (Zeocin selection)
Text: as §1, §2, §3, §4, §5

T1 sequence (O75762 whole entry): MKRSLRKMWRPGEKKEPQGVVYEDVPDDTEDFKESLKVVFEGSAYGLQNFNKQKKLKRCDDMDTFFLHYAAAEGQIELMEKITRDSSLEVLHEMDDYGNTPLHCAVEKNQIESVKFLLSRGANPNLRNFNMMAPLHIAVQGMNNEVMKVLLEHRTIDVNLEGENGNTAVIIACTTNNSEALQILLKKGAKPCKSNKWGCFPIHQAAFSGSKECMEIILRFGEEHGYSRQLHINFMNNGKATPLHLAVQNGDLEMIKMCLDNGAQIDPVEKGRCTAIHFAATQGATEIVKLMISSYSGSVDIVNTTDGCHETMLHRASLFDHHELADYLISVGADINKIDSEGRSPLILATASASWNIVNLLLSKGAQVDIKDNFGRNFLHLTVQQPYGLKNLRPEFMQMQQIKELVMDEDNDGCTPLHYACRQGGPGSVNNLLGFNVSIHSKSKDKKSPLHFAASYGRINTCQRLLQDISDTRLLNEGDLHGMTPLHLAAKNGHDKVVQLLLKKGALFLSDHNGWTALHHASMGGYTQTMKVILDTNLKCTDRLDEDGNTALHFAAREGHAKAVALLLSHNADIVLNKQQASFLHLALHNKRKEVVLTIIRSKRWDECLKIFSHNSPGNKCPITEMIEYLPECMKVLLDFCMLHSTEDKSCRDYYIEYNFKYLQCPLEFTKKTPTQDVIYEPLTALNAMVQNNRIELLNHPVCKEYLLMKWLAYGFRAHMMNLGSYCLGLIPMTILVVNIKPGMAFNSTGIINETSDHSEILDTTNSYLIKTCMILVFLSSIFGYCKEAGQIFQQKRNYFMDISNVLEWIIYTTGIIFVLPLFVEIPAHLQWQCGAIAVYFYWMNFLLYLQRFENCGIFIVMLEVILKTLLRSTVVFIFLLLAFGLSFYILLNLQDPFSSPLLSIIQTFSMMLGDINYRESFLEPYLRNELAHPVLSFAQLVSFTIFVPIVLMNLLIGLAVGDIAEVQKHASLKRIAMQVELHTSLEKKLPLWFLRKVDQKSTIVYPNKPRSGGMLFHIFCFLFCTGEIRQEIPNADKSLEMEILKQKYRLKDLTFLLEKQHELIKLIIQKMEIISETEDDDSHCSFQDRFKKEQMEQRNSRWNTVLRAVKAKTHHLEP
T2 sequence (Q6RI86 whole entry): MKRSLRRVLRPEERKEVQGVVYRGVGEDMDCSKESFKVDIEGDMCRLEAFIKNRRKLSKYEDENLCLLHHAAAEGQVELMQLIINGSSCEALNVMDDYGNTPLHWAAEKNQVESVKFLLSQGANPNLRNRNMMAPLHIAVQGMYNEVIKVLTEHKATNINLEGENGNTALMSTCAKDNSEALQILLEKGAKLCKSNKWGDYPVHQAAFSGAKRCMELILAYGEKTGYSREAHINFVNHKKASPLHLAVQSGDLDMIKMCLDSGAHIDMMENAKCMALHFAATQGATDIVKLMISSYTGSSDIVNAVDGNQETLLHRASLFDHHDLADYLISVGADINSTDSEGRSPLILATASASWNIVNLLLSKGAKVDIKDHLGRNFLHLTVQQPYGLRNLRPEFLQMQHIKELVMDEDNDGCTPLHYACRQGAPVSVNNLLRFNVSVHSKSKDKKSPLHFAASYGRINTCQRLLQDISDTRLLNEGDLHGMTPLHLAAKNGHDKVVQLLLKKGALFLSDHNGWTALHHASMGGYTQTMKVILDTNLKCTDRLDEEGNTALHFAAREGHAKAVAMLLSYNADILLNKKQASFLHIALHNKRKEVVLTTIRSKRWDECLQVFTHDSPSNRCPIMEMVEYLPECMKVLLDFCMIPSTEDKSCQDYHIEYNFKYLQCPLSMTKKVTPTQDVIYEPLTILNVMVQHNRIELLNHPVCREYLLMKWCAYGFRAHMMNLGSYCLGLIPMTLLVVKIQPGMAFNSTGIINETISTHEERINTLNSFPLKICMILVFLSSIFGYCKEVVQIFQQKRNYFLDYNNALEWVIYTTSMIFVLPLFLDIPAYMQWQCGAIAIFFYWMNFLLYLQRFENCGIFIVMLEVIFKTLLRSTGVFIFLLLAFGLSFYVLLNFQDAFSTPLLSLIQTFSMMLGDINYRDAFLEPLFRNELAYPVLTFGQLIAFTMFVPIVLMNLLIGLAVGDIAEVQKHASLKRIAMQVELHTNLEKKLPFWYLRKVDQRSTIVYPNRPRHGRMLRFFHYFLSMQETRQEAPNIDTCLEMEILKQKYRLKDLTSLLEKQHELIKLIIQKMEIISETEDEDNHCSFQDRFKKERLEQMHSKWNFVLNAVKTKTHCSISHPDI

| inhibition at 1 µM (human TRPA1) | inhibition at 10 µM (human TRPA1) | IC50 (human TRPA1) | inhibition at 1 µM (rat TRPA1) | inhibition at 10 µM (rat TRPA1) | IC50 (rat TRPA1) | SMILES |
| --- | --- | --- | --- | --- | --- | --- |
| 95.2% | 100% | < 50 nM | 71.3% | 100% | > 100 nM | Cn1c(=O)c2c(CC(=O)Nc3nc(-c4cccc(C(F)(F)F)c4)cs3)snc2n(C)c1=O [Example 1, 2-(5,7-Dimethyl-4,6-dioxo-4,5,6,7-tetrahydro[1,2]thiazolo[3,4-d]pyrimidin-3-yl)-N-{4-[3-(trifluoromethyl)phenyl]-1,3-thiazol-2-yl}acetamide] |
| 100% | 99.5% | < 50 nM | 79.4% | 100% | > 100 nM | Cn1c(=O)c2c(CC(=O)Nc3nc(-c4ccc(OC(F)(F)F)c(F)c4)cs3)snc2n(C)c1=O [Example 7, 2-(5,7-Dimethyl-4,6-dioxo-4,5,6,7-tetrahydro[1,2]thiazolo[3,4-c]pyrimidin-3-yl)-N-{4-[3-fluoro-4-(trifluoromethoxy)phenyl]-1,3-thiazol-2-yl}acetamide] |
| 98% | 99.6% | < 50 nM | 92.8% | 100% |  | Cn1c(=O)c2c(CC(=O)Nc3nc(-c4ccc(F)cc4F)cs3)nsc2n(C)c1=O [Example 28, N-[4-(2,4-Difluorophenyl)-1,3-thiazol-2-yl]-2-(5,7-dimethyl-4,6-dioxo-4,5,6,7-tetrahydro[1,2]thiazolo[5,4-d]pyrimidin-3-yl)acetamide] |
| 99.8% | 100% | < 50 nM | 72.2% | 100% |  | Cn1c(=O)c2c(CC(=O)Nc3nc(-c4ccc(C(F)(F)F)c(F)c4)cs3)snc2n(C)c1=O [Example 4, 2-(5,7-Dimethyl-4,6-dioxo-4,5,6,7-tetrahydro[1,2]thiazolo[3,4-d]pyrimidin-3-yl)-N-{4-[3-fluoro-4-(trifluoromethyl)phenyl]-1,3-thiazol-2-yl}acetamide] |
| 99.2% | 99.4% |  | 99.8% | 100% |  | Cn1c(=O)c2c(CC(=O)Nc3nc(-c4cc(Cl)cc(C(F)(F)F)c4)cs3)nsc2n(C)c1=O [Example 32, 2-(5,7-Dimethyl-4,6-dioxo-4,5,6,7-tetrahydro[1,2]thiazolo[5,4-d]pyrimidin-3-yl)-N-{4-[3-chloro-5-(trifluoromethyl)phenyl]-1,3-thiazol-2-yl}acetamide] |
| 98.1% | 99.6% | < 50 nM | 100% | 100% | < 50 nM | Cn1c(=O)c2c(CC(=O)Nc3nc(-c4ccc(Cl)c(C(F)(F)F)c4)cs3)nsc2n(C)c1=O [Example 29, 2-(5,7-Dimethyl-4,6-dioxo-4,5,6,7-tetrahydro[1,2]thiazolo[5,4-d]pyrimidin-3-yl)-N-{4-[4-chloro-3-(trifluoromethyl)phenyl]-1,3-thiazol-2-yl}acetamide] |
| 99.6% | 99.8% | < 50 nM | 99.7% | 100% | < 50 nM | Cn1c(=O)c2c(CC(=O)Nc3nc(-c4ccc(F)c(C(F)(F)F)c4)cs3)nsc2n(C)c1=O [Example 20, 2-(5,7-Dimethyl-4,6-dioxo-4,5,6,7-tetrahydro[1,2]thiazolo[5,4-d]pyrimidin-3-yl)-N-{4-[4-fluoro-3-(trifluoromethyl)phenyl]-1,3-thiazol-2-yl}acetamide] |
| 99.5% | 100% | < 50 nM | 100% | 100% | < 50 nM | Cn1c(=O)c2c(CC(=O)Nc3nc(-c4ccc(C(F)(F)F)cc4F)cs3)nsc2n(C)c1=O [Example 21, 2-(5,7-Dimethyl-4,6-dioxo-4,5,6,7-tetrahydro[1,2]thiazolo[5,4-d]pyrimidin-3-yl)-N-{4-[2-fluoro-4-(trifluoromethyl)phenyl]-1,3-thiazol-2-yl}acetamide] |

Continued, molecule first:

| SMILES | inhibition at 1 µM (human TRPA1) | inhibition at 10 µM (human TRPA1) | IC50 (human TRPA1) | inhibition at 1 µM (rat TRPA1) | inhibition at 10 µM (rat TRPA1) | IC50 (rat TRPA1) |
| --- | --- | --- | --- | --- | --- | --- |
| Cn1c(=O)c2c(CC(=O)Nc3nc(-c4ccc(Cl)c(Cl)c4)cs3)nsc2n(C)c1=O [Example 26, N-[4-(3,4-Dichlorophenyl)-1,3-thiazol-2-yl]-2-(5,7-dimethyl-4,6-dioxo-4,5,6,7-tetrahydro[1,2]thiazolo[5,4-d]pyrimidin-3-yl)acetamide] | 99.9% | 99.5% | < 50 nM | 97.7% | 100% | > 100 nM |
| Cn1c(=O)c2c(CC(=O)Nc3nc(-c4ccc(OC(F)(F)F)c(Cl)c4)cs3)nsc2n(C)c1=O [Example 30, 2-(5,7-Dimethyl-4,6-dioxo-4,5,6,7-tetrahydro[1,2]thiazolo[5,4-d]pyrimidin-3-yl)-N-{4-[3-chloro-4-(trifluoromethoxy)phenyl]-1,3-thiazol-2-yl}acetamide] | 95.6% | 99.7% | < 50 nM | 100% | 99.3% | 50 to 100 nM |
| Cn1c(=O)c2c(CC(=O)Nc3nc(-c4cc(F)c(C(F)(F)F)c(F)c4)cs3)nsc2n(C)c1=O [Example 38, N-{4-[3,5-difluoro-4-(trifluoromethyl)phenyl]-1,3-thiazol-2-yl}-2-(5,7-dimethyl-4,6-dioxo-4,5,6,7-tetrahydro[1,2]thiazolo[5,4-d]pyrimidin-3-yl)acetamide] | 100% | 99.9% | < 50 nM | 100% | 100% | < 50 nM |
| Cn1c(=O)c2c(CC(=O)Nc3nc(-c4ccc(F)c(OC(F)(F)F)c4)cs3)snc2n(C)c1=O [Example 3, 2-(5,7-Dimethyl-4,6-dioxo-4,5,6,7-tetrahydro[1,2]thiazolo[3,4-d]pyrimidin-3-yl)-N-{4-[4-fluoro-3-(trifluoromethoxy)phenyl]-1,3-thiazol-2-yl}acetamide] | 95.5% | 99.5% | < 50 nM | 68.5% | 98.3% | > 100 nM |
| Cn1c(=O)c2c(CC(=O)Nc3nc(-c4ccc(C(F)(F)F)c(F)c4)cs3)nsc2n(C)c1=O [Example 19, 2-(5,7-Dimethyl-4,6-dioxo-4,5,6,7-tetrahydro[1,2]thiazolo[5,4-d]pyrimidin-3-yl)-N-{4-[3-fluoro-4-(trifluoromethyl)phenyl]-1,3-thiazol-2-yl}acetamide] | 99.7% | 100% | < 50 nM | 99.5% | 99.3% | < 50 nM |
| Cn1c(=O)c2c(CC(=O)Nc3nc(-c4ccc(Cl)c(OC(F)(F)F)c4)cs3)nsc2n(C)c1=O [Example 31, 2-(5,7-Dimethyl-4,6-dioxo-4,5,6,7-tetrahydro[1,2]thiazolo[5,4-d]pyrimidin-3-yl)-N-{4-[4-chloro-3-(trifluoromethoxy)phenyl]-1,3-thiazol-2-yl}acetamide] | 99.2% | 99.2% |  | 99.6% | 96.2% |  |
| Cn1c(=O)c2c(CC(=O)Nc3nc(-c4cc(F)cc(C(F)(F)F)c4)cs3)nsc2n(C)c1=O [Example 22, 2-(5,7-Dimethyl-4,6-dioxo-4,5,6,7-tetrahydro[1,2]thiazolo[5,4-d]pyrimidin-3-yl)-N-{4-[3-fluoro-5-(trifluoromethyl)phenyl]-1,3-thiazol-2-yl}acetamide] | 100% | 100% | < 50 nM | 98.3% | 100% |  |
| Cn1c(=O)c2c(CC(=O)Nc3nc(-c4ccc(F)c(OC(F)(F)F)c4)cs3)nsc2n(C)c1=O [Example 24, 2-(5,7-Dimethyl-4,6-dioxo-4,5,6,7-tetrahydro[1,2]thiazolo[5,4-d]pyrimidin-3-yl)-N-{4-[4-fluoro-3-(trifluoromethoxy)phenyl]-1,3-thiazol-2-yl}acetamide] | 99.6% | 100% | < 50 nM | 100% | 99.8% | 50 to 100 nM |
